Results taken from ChEMBL document CHEMBL4414635, “Dasymaschalolactams A-E, Aristolactams from a Twig Extract of Dasymaschalon dasymaschalum” (J Nat Prod, 2019).

Assay: Inhibition of Saccharomyces cerevisiae alpha-glucosidase using p-nitrophenyl alpha-D-glucoside as substrate incubated for 0.5 hrs followed by substrate addition and measured after 1 hr by colorimetric assay

| IC50 | Structure (SMILES) |
| --- | --- |
| 24.7 µM | COc1cc(/C=C/C(=O)NCCc2ccc(O)cc2)ccc1O [N-TRANS-FERULOYL TYRAMINE] |
| 73.7 µM | C[C@H]1O[C@H](O[C@H]2[C@H](O)[C@@H](O)[C@@H](O[C@H]3[C@H](O)[C@@H](O)C(O)O[C@@H]3CO)O[C@@H]2CO)[C@H](O)[C@@H](O)[C@@H]1N[C@H]1C=C(CO)[C@@H](O)[C@H](O)[C@H]1O (some centres undefined) [ACARBOSE] |
| 4.5 µM | O=C(/C=C/c1ccc(O)cc1)NCCc1ccc(O)cc1 [N-P-COUMAROYL TYRAMINE] |
| 256 µM | COc1ccc([C@@H]2CC(=O)c3c(O)cc(O)c(O)c3O2)cc1 |
